From patent US9526740B2, “Prochelators as broad-spectrum antimicrobial agents and methods of use” (Duke University, priority 2013, dated 2016)
Converted amounts (≈) assume the structure as drawn. Like-named read-outs stand apart in the source and are kept apart here.

Experiments:
[1] = in vitro; 25° C.; cited from earlier work
[2] = test system: IFN-γ and LPS-activated primary bone marrow derived macrophage cells (BMM); assay: Viability of activated primary bone marrow derived macrophages; details: doses up to 50-100 μM, even with supplemental Cu; data not shown
[3] = test system: MT1 gene in WT C. neoformans; assay: MT1 gene expression by qPCR normalized to ACT1; type: cell-based, Cryptococcus neoformans; details: 30 min; for MT1 induction, compound alone: 10 μM compound, no Cu
Protocol: FIG. 6 is a graph showing Cu+8HQ (not QBP) increase expression levels of the MT1 gene. An overnight growth of WT C. neoformans was diluted in SC media to an OD600 of 0.2, incubated for 3 h to begin log phase growth, and treated with Cu and/or compound as indicated. After 30 min, cells were harvested and RNA was extracted, with subsequent RT-PCR to produce cDNA. Fold-change of MT1 was quantified using qPCR and normalized to ACT1. The strength of MT1 induction increases with [Cu].
5. 8HQ Increases the Cu Burden on C. neoformans. Our working hypothesis for the mechanism of action of 8HQ is that it increases the microbial burden of bioreactive Cu. If 8HQ translocates Cu into the cell in a bioavailable form, we would expect expression levels of proteins involved in Cu homeostasis to be sensitive to that influx. […] Metallothionein proteins are known to detoxify Cu and other metals by encasing them within cysteine-rich coordination sites. Increased expression of MT1 is consistent with our hypothesis that 8HQ increases bioavailable Cu, which is sensed by the cell in the form of MT1 transcription.

[4] = test system: murine macrophage-like J774A.1 cells; assay: Viability of macrophage-like cells (CellTiter-Glo)
Protocol: Cells were seeded at 1×10^5 cells/mL in 96-well plate in DMEM+10% FBS, incubated at 37° C. for 12 h, and assayed for viability with CellTiter-Glo®.

E. coli = E. coli dose response in M9 minimal medium; type: cell-based; details: no supplemental Cu
Protocol: (§1) FIG. 9 is a graph showing that E. coli dose response to 8HQ and QBP. Under these conditions, 8HQ inhibits E. coli growth at concentrations above ˜1.5 mM, whereas QBP in nontoxic up to 10 mM. Supplemental Cu was not added in these experiments, so presumably 8HQ is using Cu present in the M9 minimal medium.
(§2) 6. Broad Spectrum Activity The antimicrobial properties of oxine (8HQ) against a broad spectrum of fungal and bacterial pathogens has long been recognized. Taking advantage of this cytotoxic activity while minimizing damage to the host has prevented the application of these compounds to combat infectious disease in humans. […] We tested this hypothesis by comparing the cytotoxicity of 8HQ vs QBP against other microbes. Preliminary results indeed show a differential cytotoxicy of 8HQ vs QBP in S. aureus (FIG. 8), E. coli (FIG. 9) and M. marinum (data not shown). In these preliminary results, supplemental Cu was not added to the growth media, so presumably 8HQ uses the basal Cu present in the media to inflict its growth inhibitory action.

C. neoformans H99 strain [5] = assay: C. neoformans growth inhibition (OD600 growth curves, MIC); type: cell-based, Cryptococcus neoformans; details: for Growth inhibition of C. neoformans in the presence of 1 mM CuSO4: QBP up to the 100 μM dose tested; for MIC: Cryptococcus neoformans, H99STRAIN
C. neoformans H99 strain [6] = assay: as above; type: cell-based, Cryptococcus neoformans; details: for MIC: Cryptococcus neoformans, H99STRAIN, growth inhibition of C. neoformans, no Cu added; for C. neoformans growth with Cu, without H2O2: SC media + 10 μM CuSO4, no H2O2
Protocol: (§3) Top: Growth of C. neoformans H99 strain in SC media monitored by optical density (OD) over the course of 50 hours, where an increase in OD600 indicates normal growth. […] Bottom: In a follow up experiment to the growth curve assay shown on top, samples were taken after 50 h and plated to determine colony-forming units (CFUs).
The ability of 8-HQ to inhibit C. neoformans growth was tested with respect to metal specificity. The concentration of the indicated metals was held constant at 10 μM and cells were incubated in the presence of escalating doses of 8HQ from 0 to 50 μM. Growth was monitored over a time course in hours (x-axis) and the optical density at 600 nm was plotted at each time (y-axis).
WT C. neoformans H99 strain was grown in SC media+/−10 μM CuSO4 and 8HQ or QBP at indicated concentrations. Growth was monitored by OD600 and normalized to 100% viability for untreated controls after 50 h at 30° C.

[7] = Tolerability of intraperitoneal administration to mice; type: in vivo; details: 2 mg/kg or 10 mg/kg every second day over a two-week period
Description: 4. Toxicity of Prochelator is Activated by H2O2.

S. aureus = S. aureus dose response in tryptic soy broth; type: cell-based; details: no supplemental Cu
Protocol: as §1, with “8” for “9”, “S. Aureus” for “E. coli”, “˜150 μM,” for “˜1.5 mM,”, “˜2.5” for “10”, “tryptic soy broth” for “M9 minimal”
as §2

M. marinum = M. marinum cytotoxicity comparison (data not shown); type: cell-based; details: no supplemental Cu, preliminary
Description: 6. Broad Spectrum Activity The antimicrobial properties of oxine (8HQ) against a broad spectrum of fungal and bacterial pathogens has long been recognized. Taking advantage of this cytotoxic activity while minimizing damage to the host has prevented the application of these compounds to combat infectious disease in humans.

[8] = test system: C. neoformans CTR1/4Δ strain; details: YPEG media without Cu supplementation
Protocol: (§4) FIG. 7 is a graph showing the Effects of 8HQ on growth of C. neoformans mutants. A) WT C. neoformans and a MT1/2Δ[…], strain were grown in SC media with 10 μM CuSO4 and increasing [8HQ].

[9] = test system: C. neoformans MT1/2Δ strain; details: SC media with 10 μM CuSO4
Protocol: as §4

C. neoformans H99 strain [10] = details: 10 μM or higher 8HQ in the presence of 10 μM CuSO4
Protocol: as §3

[11] = doses up to 50-100 μM, even with supplemental Cu
[12] = growth inhibition of C. neoformans, * 1 mM Cu2+, read-out: MIC (with added Copper(II) Sulfate)

CC1(C)C2CC3OB(c4cccc5cccnc45)O[C@]3(C)C1C2 (stereo in doubt) [QBP, quinoline boronic ester]
Rate constant of conversion to 8HQ upon reaction with H2O2 [1]: 0.25 M⁻¹ s⁻¹ | Toxicity to BMM [2]: nontoxic | MT1 induction, compound alone [3]: do not cause robust induction of MT1 | MT1 response, QBP+Cu ([3]; QBP+Cu (10 μM each)): responds identically to treatment with 10 μM CuSO4 alone | Toxicity to J774A.1 cells [4, 11]: nontoxic | Concentration up to which nontoxic to E. coli (E. coli): up to 10 mM | Growth inhibition of C. neoformans in the presence of 1 mM CuSO4 (C. neoformans H99 strain [5]): nontoxic | MIC (C. neoformans H99 strain [5]; [12]): > 100 µM | MIC (C. neoformans H99 strain [6]): > 100 µM | C. neoformans growth with Cu and H2O2 (C. neoformans H99 strain [6]; QBP/H2O2/Cu, SC media, 50 h at 30° C.): inhibited cell growth as well as 8HQ/Cu | C. neoformans growth with Cu, without H2O2 (C. neoformans H99 strain [6]; 50 h at 30° C.): did not inhibit cell growth | Toxicity to C. neoformans (C. neoformans H99 strain [6]; [11]): nontoxic | Adverse effects in mice [7]: no obvious adverse affects | Concentration up to which nontoxic to S. aureus (S. aureus): ~2.5 mM | Toxicity to M. marinum compared with 8HQ (M. marinum): significantly less toxic

Oc1ccc2ncccc2c1 [6HQ, 6-hydroxyquinoline]
Growth inhibition of C. neoformans in the presence of 1 mM CuSO4 (C. neoformans H99 strain [5]): does not inhibit growth | MIC (C. neoformans H99 strain [5]; [12]): > 100 µM | MIC (C. neoformans H99 strain [6]): > 100 µM

Oc1cccc2cccnc12 [8HQ, 8-hydroxyquinoline]
Growth of transporter mutant on addition of 8HQ [8]: promotes growth | 8HQ concentration at which growth defect begins [9]: 6.25 µM | MT1 induction, compound alone [3]: do not cause robust induction of MT1 | MT1 levels, 8HQ+Cu ([3]; 8HQ+Cu (10 pM each)): MT1 levels greater than what is seen with 100 μM CuSO4 alone | IC50, cell viability of J774A.1 cells ([4]; medium supplemented with 10 μM CuSO4): sub-μM | IC50 ([4]; read-out: IC50, cell viability of J774A.1 cells, no supplemental Cu): ~5 µM | Concentration above which E. coli growth is inhibited (E. coli): ~1.5 mM | C. neoformans growth (OD600), compound tested individually (C. neoformans H99 strain [5]; 100 μM 8HQ alone, SC media, 50 hours): not affected | MIC (C. neoformans H99 strain [5]; read-out: MIC (no Cu added), growth inhibition of C. neoformans, no Cu added): > 100 µM | MIC (C. neoformans H99 strain [5]; read-out: MIC (with added Copper(II) Sulfate), growth inhibition of C. neoformans, * 10 M Cu2+): 5 µM (≈ 0.726 µg/mL) | MIC (C. neoformans H99 strain [5]; read-out: MIC of 8HQ with supplemental Cu, 10 μM supplemental Cu (CuSO4)): 5 µM | MIC (C. neoformans H99 strain [5]; read-out: MIC of 8HQ with supplemental iron, 10 μM supplemental iron): 50 µM | MIC (C. neoformans H99 strain [5]; read-out: MIC of 8HQ with supplemental silver, 10 μM supplemental silver): 25 µM | MIC (C. neoformans H99 strain [5]; read-out: MIC of 8HQ with supplemental zinc, 10 μM supplemental zinc): 50 µM | C. neoformans growth with Cu, without H2O2 (C. neoformans H99 strain [6]; 50 h at 30° C.): inhibits growth | Concentration above which S. aureus growth is inhibited (S. aureus): ~150 µM | Colony-forming units (CFUs) after 50 h (C. neoformans H99 strain [10]): absence of CFUs

Cc1cc(-c2ccc(S(=O)(=O)O)cc2)c2ccc3c(-c4ccc(S(=O)(=O)O)cc4)cc(C)nc3c2n1 [BCS]
Change in MT1 expression, control chelator [3]: does not lead to a change in MT1 expression

O=S(=O)([O-])[O-].[Cu+2] [copper, Copper(II) Sulfate]
C. neoformans growth (OD600), copper tested individually (C. neoformans H99 strain [5]; 1 mM copper alone, SC media, 50 hours): not affected
